The values below come from patent publication US20080226714A1, “SUSTAINED-RELEASE TABLET FORMULATIONS OF PIPERAZINE-PIPERIDINE ANTAGONISTS AND AGONISTS OF THE 5-HT1A RECEPTOR HAVING ENHANCED INTESTINAL DISSOLUTION” (WYETH, priority 2007, published 2008).

Values after ≈ are worked out from the molar mass of the structure shown. Where two headings read alike, the source gives them in different places.

A short description of data set [1]: physchem. The data set is classed as physicochemical. The source says: (§1) Pharmaceutical compounds that interact with the 5-HT1A receptor are useful to treat a wide variety of central nervous system disorders, such as cognition disorders, anxiety disorders, and depression. Certain piperazine-piperidine compounds have shown utility as 5-HT1A receptor antagonists, agonists and partial antagonist/agonists. See, for example, U.S. Patent Publication No. 2007/0027160, filed Jun. 9, 2006, entitled “piperazine-Piperidine Antagonists And Agonists Of The 5-HT1A Receptor”. […] During development of 5-fluoro-8-{4-[4-(6-methoxyquinolin-8-yl)piperazin-1-yl]piperidin-1-yl}quinoline, it was discovered that the compound has a pH-dependent solubility. […] Therefore, the rate of systemic input of 5-fluoro-8-{4-[4-(6-methoxyquinolin-8-yl)piperazin-1-yl]piperidin-1-yl}quinoline will be dependent on the dissolution or solubilization of the compound. […] A controlled-release formulation to reduce the dose frequency of 5-fluoro-8-{4-[4-(6-methoxyquinolin-8-yl)piperazin-1-yl]piperidin-1-yl}quinoline would be beneficial for improving compliance and convenience. However, this type of formulation presents the challenge of maintaining the dissolution of the compound in the lower gastrointestinal tract where solubility is very low.

Data set [2] can be described thus: Permeability characteristics in animal studies. Type of data set: in vivo.
Description: as §1

The nature of data set [3]: Preclinical half-life after IV bolus. The data set is classed as in vivo. As to conditions: Sprague-Dawley rats, 0.3 mg/kg IV bolus. From the text:
See, for example, U.S. Patent Publication No. 2007/0027160, filed Jun. 9, 2006, entitled “piperazine-Piperidine Antagonists And Agonists Of The 5-HT1A Receptor”.

For orientation: solubility means the concentration that dissolves in the medium under given conditions. Take `COc1cc(N2CCN(C3CCN(c4ccc(F)c5cccnc45)CC3)CC2)c2ncccc2c1.O=C(O)CCC(=O)O.O=C(O)CCC(=O)O.O=C(O)CCC(=O)O` [5-fluoro-8-{4-[4-(6-methoxyquinolin-8-yl)piperazin-1-yl]piperidin-1-yl}quinoline trisuccinate]: the solubility result in data set [1] (trisuccinate salt, pH greater than about six) is “sub-microgram per milliliter level”; in data set [1] (water, trisuccinate salt, aqueous, read-out: aqueous solubility), approximately 1000 µg/mL.
Consider `COc1cc(N2CCN(C3CCN(c4ccc(F)c5cccnc45)CC3)CC2)c2ncccc2c1` [5-fluoro-8-{4-[4-(6-methoxyquinolin-8-yl)piperazin-1-yl]piperidin-1-yl}quinoline], for which the permeability result in data set [2] is on record as “high permeability”. Moreover, the solubility was approximately 0.04 µg/mL (≈ 0.0848 µM) in data set [1] (free base, water, read-out: water solubility); approximately 2200 µg/mL (≈ 4670 µM) in data set [1] (pH 2.4, aqueous buffer, pH about 2.4, read-out: solubility); less than 1 µg/mL in data set [1] (pH 6, aqueous buffer, pH levels greater than about 6, read-out: solubility); approximately 0.036 µg/mL (≈ 0.0763 µM) in data set [1] (pH 8.9, aqueous buffer, pH about 8.9, read-out: solubility). Further, in data set [3], the t1/2 result is “about one”.
